Reference: patent US11512053B2, “Arginine methyltransferase inhibitors and uses thereof” (priority 2013, dated 2022)
Counter-ions that a name gives are not always drawn. Like-named read-outs stand apart in the source and are kept apart here.

Key:
[1] = molecular target: full-length human PRMT1 isoform 1 (GST-tagged) (Homo sapiens, UniProt Q99873); test: PRMT1 Biochemical Assay (3H-SAM Flashplate, peptide substrate)
Method in brief: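 GST-tagged full-length PRMT1 from baculovirus-infected cells, preincubated 30 min at room temperature with compound in 20 mM Bicine pH 7.6, TCEP, BSG, Tween 20. Reaction started with 3H-SAM plus biotinylated peptide, stopped with 300 uM unlabelled SAM. Streptavidin Flashplate capture and scintillation counting; % inhibition curve-fitted for IC50.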

[2] = molecular target: full-length human PRMT6 (Flag- and His-tagged) (Homo sapiens, UniProt Q96LA8); test: PRMT6 Biochemical Assay (3H-SAM Flashplate, peptide substrate); conditions: read-out: Biochemical IC50 PRMT6
Method in brief: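 Flag/His-tagged full-length human PRMT6 (1 nM) preincubated with compound 30 min at room temperature in Bicine pH 7.6 buffer, then reaction started with 3H-SAM 200 nM plus unlabeled SAM 250 nM and biotinylated H4 36-50 peptide (K44me1) 75 nM; 2% DMSO. Quenched with 400 uM cold SAM; labeled peptide captured on streptavidin Flashplate, counted; % inhibition vs DMSO and 1 mM SAH controls fit by 3- or 4-parameter curve.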

[3] = single experiment or average of multiple experiments

full-length human PRMT1 isoform 1 (GST-tagged), sequence (Q99873 with tags, fused parts or gaps): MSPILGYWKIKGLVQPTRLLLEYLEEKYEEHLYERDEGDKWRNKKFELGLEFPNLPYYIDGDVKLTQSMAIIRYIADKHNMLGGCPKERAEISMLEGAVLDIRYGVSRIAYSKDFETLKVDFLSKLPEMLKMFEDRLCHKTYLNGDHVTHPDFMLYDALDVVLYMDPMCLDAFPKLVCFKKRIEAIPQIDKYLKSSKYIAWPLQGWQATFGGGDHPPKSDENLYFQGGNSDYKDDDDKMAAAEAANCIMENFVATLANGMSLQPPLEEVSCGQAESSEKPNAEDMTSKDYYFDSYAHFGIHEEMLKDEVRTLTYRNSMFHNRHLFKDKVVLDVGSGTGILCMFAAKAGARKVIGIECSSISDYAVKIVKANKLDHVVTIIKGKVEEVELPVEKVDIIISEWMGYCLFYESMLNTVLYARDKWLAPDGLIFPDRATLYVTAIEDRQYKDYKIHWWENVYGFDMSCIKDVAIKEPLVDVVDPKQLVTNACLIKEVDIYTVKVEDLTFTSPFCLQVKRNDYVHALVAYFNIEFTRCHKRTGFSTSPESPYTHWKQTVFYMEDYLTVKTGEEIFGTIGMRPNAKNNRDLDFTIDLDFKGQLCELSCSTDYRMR
full-length human PRMT6 (Flag- and His-tagged), sequence (Q96LA8 with tags, fused parts or gaps): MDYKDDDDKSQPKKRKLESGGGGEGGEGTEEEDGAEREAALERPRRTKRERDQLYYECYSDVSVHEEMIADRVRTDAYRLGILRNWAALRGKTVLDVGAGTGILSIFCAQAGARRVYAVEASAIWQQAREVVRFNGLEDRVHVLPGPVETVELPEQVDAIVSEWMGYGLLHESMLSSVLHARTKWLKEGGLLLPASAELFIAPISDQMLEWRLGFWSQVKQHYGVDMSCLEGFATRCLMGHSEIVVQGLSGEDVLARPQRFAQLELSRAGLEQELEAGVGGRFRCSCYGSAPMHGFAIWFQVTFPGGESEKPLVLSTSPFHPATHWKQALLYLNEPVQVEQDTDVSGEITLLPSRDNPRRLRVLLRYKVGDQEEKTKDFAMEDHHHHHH

Row | Compound | IC50 [1] [nM] | IC50 [1, 3] [nM] | IC50 [2] [nM] | IC50 [2, 3] [nM]
1 | CCOC[C@H]1CC(c2n[nH]cc2CN(C)CCNC)C[C@H](COCC)C1 (stereo partly shown) [Compound 188] | 101 to 1000 | 275 | 1010 to 3000 | 1230
2 | CCOC[C@@H]1C[C@H](COCC)C[C@H](c2n[nH]cc2CN(C)CCNC)C1 [Compound 189] | 101 to 1000 | 108 | 1010 to 3000 | 1470
3 | CNCCN(C)Cc1c[nH]nc1C1CCC(=O)N(CCCOC)C1 (stereo not shown) [Compound 190] | 101 to 1000 | 124 | 101 to 1000 | 156
4 | CNCCN(C)Cc1c[nH]nc1C1CCC(=O)N(Cc2ccc(C(F)(F)F)cc2)C1 (stereo not shown) [Compound 191] | < 100 | 50.4 | 101 to 1000 | 107
5 | CNCCN(C)Cc1c[nH]nc1[C@H]1CC[C@H](N(CC2CCOCC2)C(=O)CC(C)C)CC1 [Compound 192] | 101 to 1000 | 216 | 101 to 1000 | 173
6 | CNCCN(C)Cc1c[nH]nc1[C@H]1CC[C@H](N(CC(C)C)C(=O)CC2CCOCC2)CC1 [Compound 193] | < 100 | 28.4 | < 100 | 95.1
7 | CNCCN(C)Cc1c[nH]nc1C1CCC(=O)CC1 [Compound 194] | < 100 | 14.5 | < 100 | 22.7
8 | CCN(C(=O)CC1CCOCC1)[C@H]1CC[C@H](c2n[nH]cc2CN(C)CCNC)CC1 [Compound 195] | < 100 | 14.4 | < 100 | 51.7
9 | CCN(C(=O)CC1CCOCC1)[C@H]1CC[C@@H](c2n[nH]cc2CN(C)CCNC)CC1 [Compound 196] | 101 to 1000 | 149 | 101 to 1000 | 111
10 | CNCCN(C)Cc1c[nH]nc1[C@H]1CC[C@]2(CCN(Cc3cc(F)cc(F)c3)C2=O)CC1 [Compound 197] | < 100 | 8.27 | < 100 | 10.7
11 | CNCCN(C)Cc1c[nH]nc1[C@H]1CC[C@]2(CCCO2)OC1 [Compound 198] | 3010 to 10000 | ≥ 10000 | 3010 to 10000 | 8540
12 | CNCCN(C)Cc1c[nH]nc1C1CCC2(CCCC2)OC1 (stereo not shown) [Compound 199] | < 100 | 16.8 | < 100 | 36.5
13 | CNCCN(C)Cc1n[nH]cc1[C@H]1CC[C@@]2(CC1)CC(C)(C)CO2 [Compound 200, Methyl[2-(methylamino)ethyl]([4-[(5S,8S)-3,3-dimethyl-1-oxaspiro[4.5]decan-8-yl]-1H-pyrazol-3-yl]methyl)amine trifluoroacetic acid salt] | < 100 |  | < 100 | 
14 | CNCCN(C)Cc1n[nH]cc1[C@H]1CC[C@]2(CC1)CC(C)(C)CO2 [Compound 201] | < 100 |  | 101 to 1000 | 
15 | CCOCC1CC(c2n[nH]cc2CN(C)CCNC)CCC1(C)C (stereo not shown) [Compound 202] | < 100 | 12.7 | < 100 | 66.4
16 | CNCCN(C)Cc1n[nH]cc1[C@H]1CC[C@H](C(=O)NCCC(C)C)CC1 [Compound 203] | < 100 | 28.4 | < 100 | 36.8
17 | CNCCN(C)Cc1c[nH]nc1[C@H]1CC[C@@H](C(=O)NCCC(C)C)CC1 [Compound 204] | < 100 | 18.4 | < 100 | 63.6
18 | CNCCN(C)Cc1cn(C)nc1[C@H]1CC[C@@]2(CC1)CC(C)(C)CO2 [Compound 205, Methyl([1-methyl-3-[(5S,8S)-3,3-dimethyl-1-oxaspiro[4.5]decan-8-yl]-1H-pyrazol-4-yl]methyl)[2-(methylamino)ethyl]amine hydrochloride] | < 100 | 12.8 | < 100 | 71.5
19 | CNCCN(C)Cc1cn(C)nc1[C@H]1CC[C@]2(CC1)CC(C)(C)CO2 [Compound 206, Methyl([1-methyl-3-[(5R,8S)-3,3-dimethyl-1-oxaspiro[4.5]decan-8-yl]-1H-pyrazol-4-yl]methyl)[2-(methylamino)ethyl]amine hydrochloride] | < 100 | 19.5 | 101 to 1000 | 207
20 | CN(CCN)Cc1c[nH]nc1[C@H]1CC[C@@]2(CC1)CC(C)(C)CO2 [Compound 207] | < 100 |  | < 100 | 
21 | CN(CCN)Cc1c[nH]nc1[C@H]1CC[C@]2(CC1)CC(C)(C)CO2 [Compound 208] | < 100 | 6.94 | < 100 | 45.3
22 | CNCCN(C)Cc1c[nH]nc1[C@H]1CC[C@H](C(=O)N(C)CCC(C)C)CC1 [Compound 209] | < 100 | 27.8 | < 100 | 52.1

Row | Compound | IC50 [1] [nM] | IC50 [1, 3] [nM] | IC50 [2] [nM] | IC50 [2, 3] [nM]
23 | CNCCN(C)Cc1c[nH]nc1[C@H]1CC[C@@H](C(=O)N(C)CCC(C)C)CC1 [Compound 210] | < 100 | 13.1 | < 100 | 31.7
24 | CNCCN(C)Cc1c[nH]nc1[C@H]1CC[C@H](C(=O)NCCOc2ccccc2)CC1 [Compound 211] | < 100 | 8.28 | < 100 | 11.4
25 | CNCCN(C)Cc1c[nH]nc1[C@H]1CC[C@@H](C(=O)NCCOc2ccccc2)CC1 [Compound 212] | < 100 | 5.57 | < 100 | 13.6
26 | CNCCN(C)Cc1c[nH]nc1[C@H]1CC[C@H](C(=O)N(CCCOC)CCC(C)C)CC1 [Compound 213] | < 100 | 53.9 | < 100 | 91.3
27 | CNCCN(C)Cc1c[nH]nc1[C@H]1CC[C@@H](C(=O)N(CCCOC)CCC(C)C)CC1 [Compound 214] | < 100 | 19.8 | < 100 | 50.5
28 | CNCCN(C)Cc1c[nH]nc1[C@H]1CC[C@@H](C(=O)N(C)CC(C)C)CC1 [Compound 215] | < 100 | 14.1 | < 100 | 30.6
29 | CNCCN(C)Cc1c[nH]nc1C1CCC(F)(F)CC1 [Compound 216] | < 100 | 12.1 | < 100 | 20.5
30 | CNCCN(C)Cc1c[nH]nc1[C@H]1CC[C@@H](O)CC1 [Compound 217, 4-[4-([methyl[2-(methylamino)ethyl]amino]methyl)-1H-pyrazol-3-yl]cyclohexan-1-ol trifluoroacetate] | < 100 | 30.2 | < 100 | 34
31 | CNCCN(C)Cc1c[nH]nc1[C@H]1CC[C@@H](N(CCOc2ccccc2)C(=O)CCOC)CC1 [Compound 218] | < 100 | 41.7 | < 100 | 30.3
32 | CNCCN(C)Cc1c[nH]nc1[C@H]1CC[C@H](N(CCOc2ccccc2)C(=O)CCOC)CC1 [Compound 219] | < 100 | 8.96 | < 100 | 31.9
33 | CCC(=O)N(CCOc1ccccc1)[C@H]1CC[C@@H](c2n[nH]cc2CN(C)CCNC)CC1 [Compound 220] | < 100 | 9.29 | < 100 | 18.4
34 | CCC(=O)N(CCOc1ccccc1)[C@H]1CC[C@H](c2n[nH]cc2CN(C)CCNC)CC1 [Compound 221] | < 100 | 6.44 | < 100 | 19.2
35 | CNCCN(C)Cc1c[nH]nc1[C@H]1CC[C@@H](N(CCOc2ccccc2)C(=O)CC(C)C)CC1 [Compound 222] | < 100 | 43 | < 100 | 21.3
36 | CNCCN(C)Cc1c[nH]nc1[C@H]1CC[C@H](N(CCOc2ccccc2)C(=O)CC(C)C)CC1 [Compound 223] | < 100 | 6.65 | < 100 | 15.8
37 | CCN(C(=O)CCOc1ccccc1)[C@H]1CC[C@@H](c2n[nH]cc2CN(C)CCNC)CC1 [Compound 224] | < 100 | 9.27 | < 100 | 18
38 | CCN(C(=O)CCOc1ccccc1)[C@H]1CC[C@H](c2n[nH]cc2CN(C)CCNC)CC1 [Compound 225] | < 100 | 7.62 | < 100 | 11.6
39 | CNCCN(C)Cc1c[nH]nc1[C@H]1CC[C@H](C(=O)N(C)CC(C)C)CC1 [Compound 226] | < 100 | 33.1 | < 100 | 41.5
40 | CNCCN(C)Cc1c[nH]nc1[C@H]1CC[C@H](O)CC1 [Compound 227, 4-[4-([methyl[2-(methylamino)ethyl]amino]methyl)-1H-pyrazol-3-yl]cyclohexan-1-ol trifluoroacetate] | < 100 | 16.8 | < 100 | 17.8
41 | CNCCN(C)Cc1c[nH]nc1[C@H]1CC[C@@H](N(CCOc2ccccc2)C(=O)CCCOC)CC1 [Compound 228] | < 100 | 69 | < 100 | 18.5
42 | CNCCN(C)Cc1c[nH]nc1[C@H]1CC[C@H](N(CCOc2ccccc2)C(=O)CCCOC)CC1 [Compound 229] | < 100 | 10.8 | < 100 | 29.1
43 | CNCCN(C)Cc1c[nH]nc1[C@H]1CC[C@H](N(CCOC)C(=O)CCOc2ccccc2)CC1 [Compound 230] | < 100 | 13.5 | < 100 | 23.1
